# Source: patent US20240067662A1, “KRAS INHIBITORS” (Bristol-Myers Squibb Company, priority 2022, published 2024)
# Molecular target: GMPPNP-loaded KRAS G12C (Homo sapiens, UniProt P01116, G12C)
# Assay: KRAS G12C RAF Disruption Assay (HTRF)
# Format: biochemical
# Conditions: recombinant GMPPNP-loaded KRAS G12C (5 nM), 20 min with compound; GST-RAF1 RBD (9 nM); HTRF signal; read-out: KRASG12C RAF Disruption Assay (IC50)
# Description: KRAS^G12C RAF Disruption Assay
# This is a functional assay that measures activity of compounds against KRAS-G12C^(ON), i.e., the active form of KRAS G12C. Recombinant GMPPNP-loaded KRAS G12C (5 nM) was treated with compound at room temperature for 20 minutes in assay buffer (50 mM Tris pH 7.5, 100 mM NaCl, 1 mM MgCl2, 1 mM DTT, 100ug/ml BSA). Recombinant GST-RAF1 RBD (9 nM) was added, and the reaction mixture was incubated for 20 minutes. SA-Tb (0.25 nM) was added, and the reaction mixture was incubated for 3 hours. HTRF signal was measured (PerkinElmer Envision), the signal ratio (λem 520/λem 495) was calculated, and IC50 values were calculated from the dose-response curve.
# GMPPNP-loaded KRAS G12C, sequence (P01116 1-188 isoform P01116-2 G12C): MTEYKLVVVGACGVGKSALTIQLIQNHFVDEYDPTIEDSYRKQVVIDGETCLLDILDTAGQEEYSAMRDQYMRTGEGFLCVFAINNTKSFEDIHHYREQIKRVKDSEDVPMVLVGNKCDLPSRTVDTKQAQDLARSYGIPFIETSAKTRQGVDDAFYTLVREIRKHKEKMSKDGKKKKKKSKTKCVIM
row,Structure (SMILES),IC50
1,"C#Cc1c(F)ccc2cc(O)cc(-c3ncc4c(N5C[C@H]6CC[C@@H](C5)N6C(=O)/C(F)=C/c5ccncn5)nc(OC[C@@]56CCCN5C[C@H](F)C6)nc4c3F)c12 [Compound 18, (Z)-1-((1R, 5S)-3-(7-(8-ethynyl-7-fluoro-3-hydroxynaphthalen-1-yl)-8-fluoro-2-(((2R, 7aS)-2-fluorotetrahydro-1H-pyrrolizin-7a(5H)-yl)methoxy)pyrido[4,3-d]pyrimidin-4-yl)-3,8-diazabicyclo[3.2.1]octan-8-yl)-2-fluoro-3-(pyrimidin-4-yl)prop-2-en-1-one]",0.025 µM
2,"CN1CCC[C@H]1COc1nc(N2CCN(C(=O)/C(F)=C/c3ccccn3)[C@@H](CC#N)C2)c2cnc(-c3cccc4cccc(Cl)c34)c(F)c2n1 [Compound 19A, 2-((S)-4-(7-(8-chloronaphthalen-1-yl)-8-fluoro-2-(((S)-1-methylpyrrolidin-2-yl)methoxy)pyrido[4,3-d]pyrimidin-4-yl)-1-((Z)-2-fluoro-3-(pyridin-2-yl)acryloyl)piperazin-2-yl)acetonitrile]",0.059 µM
3,"CN1CCC[C@H]1COc1nc(N2CCN(C(=O)/C(F)=C/c3ccccn3)[C@@H](CC#N)C2)c2cnc(-c3cccc4ccccc34)c(F)c2n1 [Compound 19B, 2-((S)-4-(8-fluoro-2-(((S)-1-methylpyrrolidin-2-yl)methoxy)-7-(naphthalen-1-yl)pyrido[4,3-d]pyrimidin-4-yl)-1-((Z)-2-fluoro-3-(pyridin-2-yl)acryloyl)piperazin-2-yl)acetonitrile]",0.27 µM
4,"CN1CCC[C@H]1COc1nc(N2CCN(C(=O)/C(F)=C/c3ncccn3)[C@@H](CC#N)C2)c2cnc(-c3cccc4cccc(Cl)c34)c(F)c2n1 [Compound 20, 2-((S)-4-(7-(8-chloronaphthalen-1-yl)-8-fluoro-2-(((S)-1-methylpyrrolidin-2-yl)methoxy)pyrido[4,3-d]pyrimidin-4-yl)-1-((Z)-2-fluoro-3-(pyrimidin-2-yl)acryloyl)piperazin-2-yl)acetonitrile]",0.089 µM
5,"CN1CCC[C@H]1COc1nc(N2CCN(C(=O)/C(F)=C/c3nccs3)[C@@H](CC#N)C2)c2cnc(-c3cccc4cccc(Cl)c34)c(F)c2n1 [Compound 21A, 2-((S)-4-(7-(8-chloronaphthalen-1-yl)-8-fluoro-2-(((S)-1-methylpyrrolidin-2-yl)methoxy)pyrido[4,3-d]pyrimidin-4-yl)-1-((Z)-2-fluoro-3-(thiazol-2-yl)acryloyl)piperazin-2-yl)acetonitrile]",0.067 µM
6,"CN1CCC[C@H]1COc1nc(N2CCN(C(=O)/C(F)=C/c3nccs3)CC2)c2cnc(-c3cccc4cccc(Cl)c34)c(F)c2n1 [Compound 22, (S,Z)-1-(4-(7-(8-chloronaphthalen-1-yl)-8-fluoro-2-((1-methylpyrrolidin-2-yl)methoxy)pyrido[4,3-d]pyrimidin-4-yl)piperazin-1-yl)-2-fluoro-3-(thiazol-2-yl)prop-2-en-1-one]",1.9 µM
7,"C#Cc1cccc2cccc(-c3ncc4c(N5CCCN(C(=O)/C(F)=C/c6nccs6)CC5)nc(OC[C@@]56CCCN5C[C@H](F)C6)nc4c3F)c12 [Compound 78, (Z)-1-(4-(7-(8-ethynylnaphthalen-1-yl)-8-fluoro-2-(((2R, 7aS)-2-fluorotetrahydro-1H-pyrrolizin-7a(5H)-yl)methoxy)pyrido[4,3-d]pyrimidin-4-yl)-1,4-diazepan-1-yl)-2-fluoro-3-(thiazol-2-yl)prop-2-en-1-one]",0.12 µM
8,"N#CC[C@H]1CN(c2nc(OC[C@@]34CCCN3C[C@H](F)C4)nc3c(F)c(-c4ccccc4C4CC4)ncc23)CCN1C(=O)/C(F)=C/c1ccccn1 [Compound 79, 2-((2S)-4-(7-(2-cyclopropylphenyl)-8-fluoro-2-(((2R, 7aS)-2-fluorotetrahydro-1H-pyrrolizin-7a(5H)-yl)methoxy)pyrido[4,3-d]pyrimidin-4-yl)-1-((Z)-2-fluoro-3-(pyridin-2-yl)acryloyl)piperazin-2-yl)acetonitrile]",0.065 µM
9,"N#CC[C@H]1CN(c2nc(OC[C@@]34CCCN3C[C@H](F)C4)nc3c(F)c(-c4ccccc4C4CC4)ncc23)CCN1C(=O)/C(F)=C/c1nccs1 [Compound 80, 2-((2S)-4-(7-(2-cyclopropylphenyl)-8-fluoro-2-(((2R, 7aS)-2-fluorotetrahydro-1H-pyrrolizin-7a(5H)-yl)methoxy)pyrido[4,3-d]pyrimidin-4-yl)-1-((Z)-2-fluoro-3-(thiazol-2-yl)acryloyl)piperazin-2-yl)acetonitrile]",0.03 µM
10,"N#CC[C@H]1CN(c2nc(OC[C@@]34CCCN3C[C@H](F)C4)nc3c(F)c(-c4ccccc4C4CCC4)ncc23)CCN1C(=O)/C(F)=C/c1ccccn1 [Compound 81, 2-((2S)-4-(7-(2-cyclobutylphenyl)-8-fluoro-2-(((2R, 7aS)-2-fluorotetrahydro-1H-pyrrolizin-7a(5H)-yl)methoxy)pyrido[4,3-d]pyrimidin-4-yl)-1-((Z)-2-fluoro-3-(pyridin-2-yl)acryloyl)piperazin-2-yl)acetonitrile]",0.057 µM
11,"N#CC[C@H]1CN(c2nc(OC[C@@]34CCCN3C[C@H](F)C4)nc3c(F)c(-c4ccccc4C4CCC4)ncc23)CCN1C(=O)/C(F)=C/c1nccs1 [Compound 82, 2-((2S)-4-(7-(2-cyclobutylphenyl)-8-fluoro-2-(((2R, 7aS)-2-fluorotetrahydro-1H-pyrrolizin-7a(5H)-yl)methoxy)pyrido[4,3-d]pyrimidin-4-yl)-1-((Z)-2-fluoro-3-(thiazol-2-yl)acryloyl)piperazin-2-yl)acetonitrile]",0.062 µM

# Now from value to compound:
row,IC50,Structure (SMILES)
1,2.6 µM,"C#Cc1cccc2cccc(-c3ncc4c(N5C[C@H](C)N(C(=O)/C(F)=C/c6ccccn6)C[C@H]5C)nc(OC[C@@]56CCCN5C[C@H](F)C6)nc4c3F)c12 [Compound 83, (Z)-1-((2S,5R)-4-(7-(8-ethynylnaphthalen-1-yl)-8-fluoro-2-(((2R, 7aS)-2-fluorotetrahydro-1H-pyrrolizin-7a(5H)-yl)methoxy)pyrido[4,3-d]pyrimidin-4-yl)-2,5-dimethylpiperazin-1-yl)-2-fluoro-3-(pyridin-2-yl)prop-2-en-1-one]"
2,0.11 µM,"C#Cc1cccc2cccc(-c3ncc4c(N5CC[C@@H]6CN(C(=O)/C(F)=C/c7ccccn7)C[C@@H]65)nc(OC[C@@]56CCCN5C[C@H](F)C6)nc4c3F)c12 [Compound 85, (Z)-1-((3aR, 6aR)-1-(7-(8-ethynylnaphthalen-1-yl)-8-fluoro-2-(((2R, 7aS)-2-fluorotetrahydro-1H-pyrrolizin-7a(5H)-yl)methoxy)pyrido[4,3-d]pyrimidin-4-yl)hexahydropyrrolo[3,4-b]pyrrol-5(1H)-yl)-2-fluoro-3-(pyridin-2-yl)prop-2-en-1-one]"
3,0.11 µM,"C#Cc1cccc2cccc(-c3ncc4c(N5CC[C@@H]6CN(C(=O)/C(F)=C/c7ncccn7)C[C@@H]65)nc(OC[C@@]56CCCN5C[C@H](F)C6)nc4c3F)c12 [Compound 86, (Z)-1-((3aR, 6aR)-1-(7-(8-ethynylnaphthalen-1-yl)-8-fluoro-2-(((2R, 7aS)-2-fluorotetrahydro-1H-pyrrolizin-7a(5H)-yl)methoxy)pyrido[4,3-d]pyrimidin-4-yl)hexahydropyrrolo[3,4-b]pyrrol-5(1H)-yl)-2-fluoro-3-(pyrimidin-2-yl)prop-2-en-1-one]"
4,1.6 µM,"C#Cc1cccc2c(F)ccc(-c3ncc4c(N5CCN(C(=O)/C(F)=C/c6ccccn6)CC5)nc(OC[C@@]56CCCN5C[C@H](F)C6)nc4c3F)c12 [Compound 87, (Z)-1-(4-(7-(8-ethynyl-4-fluoronaphthalen-1-yl)-8-fluoro-2-(((2R, 7aS)-2-fluorotetrahydro-1H-pyrrolizin-7a(5H)-yl)methoxy)pyrido[4,3-d]pyrimidin-4-yl)piperazin-1-yl)-2-fluoro-3-(pyridin-2-yl)prop-2-en-1-one]"
5,1 µM,"C#Cc1cccc2c(F)ccc(-c3ncc4c(N5CCN(C(=O)/C(F)=C/c6ncccn6)CC5)nc(OC[C@@]56CCCN5C[C@H](F)C6)nc4c3F)c12 [Compound 88, (Z)-1-(4-(7-(8-ethynyl-4-fluoronaphthalen-1-yl)-8-fluoro-2-(((2R, 7aS)-2-fluorotetrahydro-1H-pyrrolizin-7a(5H)-yl)methoxy)pyrido[4,3-d]pyrimidin-4-yl)piperazin-1-yl)-2-fluoro-3-(pyrimidin-2-yl)prop-2-en-1-one]"
6,0.037 µM,"C#Cc1c(F)ccc2cccc(-c3ncc4c(N5CCN(C(=O)/C(F)=C/c6ccccn6)C[C@@H]5C)nc(OC[C@@]56CCCN5C[C@H](F)C6)nc4c3F)c12 [Compound 89, (Z)-1-((S)-4-(7-(8-ethynyl-7-fluoronaphthalen-1-yl)-8-fluoro-2-(((2R, 7aS)-2-fluorotetrahydro-1H-pyrrolizin-7a(5H)-yl)methoxy)pyrido[4,3-d]pyrimidin-4-yl)-3-methylpiperazin-1-yl)-2-fluoro-3-(pyridin-2-yl)prop-2-en-1-one]"
7,0.11 µM,"C#Cc1c(F)ccc2cccc(-c3ncc4c(N5CCN(C(=O)/C(F)=C/c6ncccn6)C[C@@H]5C)nc(OC[C@@]56CCCN5C[C@H](F)C6)nc4c3F)c12 [Compound 90, (Z)-1-((S)-4-(7-(8-ethynyl-7-fluoronaphthalen-1-yl)-8-fluoro-2-(((2R, 7aS)-2-fluorotetrahydro-1H-pyrrolizin-7a(5H)-yl)methoxy)pyrido[4,3-d]pyrimidin-4-yl)-3-methylpiperazin-1-yl)-2-fluoro-3-(pyrimidin-2-yl)prop-2-en-1-one]"
